US7470703B1 (priority 2004, dated 2008)
Read-outs that look alike come from different tables or passages of the source. Marks after values point to notes of the source that are not given here.

How the values were obtained:
[1] = tested on: mouse cremaster muscle; experiment: In vivo mouse cremaster muscle vessel diameter; details: intravenous 2 mg/kg, 37° C., n=6
Text: It is expected that this model also adequately represent the vasodilation in humans.

[2] = target: T1, human α2C-AR (Homo sapiens, UniProt P18825); experiment: Radioligand binding ([3H]rauwolscine) in CHO cells expressing human α2C-AR; parameters: expressed in transfected cells; details: for binding affinity for the α2C-AR greater than on the α1-AR subtypes: comparing Tables 1 and 3; for selectivity in binding to the α2C- versus the α2A-AR / selectivity in binding to the α2C- versus the α2B-AR: from binding affinities
T1 sequence (P18825 1-462): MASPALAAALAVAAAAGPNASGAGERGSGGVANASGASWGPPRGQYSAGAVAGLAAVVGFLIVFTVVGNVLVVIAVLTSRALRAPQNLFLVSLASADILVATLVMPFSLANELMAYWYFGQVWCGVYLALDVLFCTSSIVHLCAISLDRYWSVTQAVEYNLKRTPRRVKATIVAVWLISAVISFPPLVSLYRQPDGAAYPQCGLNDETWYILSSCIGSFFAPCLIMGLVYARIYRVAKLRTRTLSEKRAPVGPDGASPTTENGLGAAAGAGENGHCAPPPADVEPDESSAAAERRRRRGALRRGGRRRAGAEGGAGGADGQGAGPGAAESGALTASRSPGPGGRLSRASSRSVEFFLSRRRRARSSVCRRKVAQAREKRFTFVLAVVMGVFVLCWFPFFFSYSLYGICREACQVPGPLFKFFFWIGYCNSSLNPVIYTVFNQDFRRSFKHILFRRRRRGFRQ
Protocol: (§1) Radioligand binding studies were conducted in CHO cells expressing homogeneous populations of α2A-, α2B- and α2C-ARs. Similar studies were performed in HEK293 cells expressing homogeneous populations of α1A-, α1B- and α1D-ARs. Briefly, CHO cells were harvested using Ham's F-12 media following trypsinization while HEK293 cells were detached by simple scraping. The cell suspension was centrifuged and the pellet re-suspended in Tris-EDTA buffer, pH 7.4. […] The assays were conducted in a final volume of 2 ml. Non-specific binding was determined in the presence of 10 μM phentolamine. The percentage of specific binding was determined by dividing the difference between the total bound (dpm) and nonspecific bound (dpm) by the total bound (dpm). […] Inhibition of specific binding by the competitors was determined using varying concentrations of the analogs. Incubations were terminated at 60 minutes by rapid filtration over Whatman GF/C glass fiber filters (Maidstone, UK) using a cell harvester (Brandel Inc., Gaithersburg, Md.). The filter discs were washed three times with Tris-EDTA buffer, pH 7.4, at 4° C. The radioactivity was quantified by using a Packard TRI-CARB 2900 TR Liquid Scintillation Analyzer (Packard Instrument Company, CT, USA) and data analyzed using GraphPad Prism (GraphPad Software, San Diego, Calif., USA).
(§2) Scatchard analyses were carried out using varying concentrations of selected radioligands to determine their affinities (KD) and maximal binding characteristics (Bmax). […] The total and nonspecific binding for each concentration was determined in triplicate. The specific binding, at each concentration of the radioligand, was established and plotted as bound ligand versus bound/free ligand and the corresponding KD and Bmax values calculated on each human α-AR subtype. Data are expressed as the mean±S.E.M. of n=6-9 experiments.
(§3) Individual pKi values are used to determine whether there are significant differences among means of the analogs on the three α2-AR subtypes. […] The final data are presented as mean±SEM of n=4 or more experiments.
(§4) Ki and IC50 values were calculated as described above.

[3] = tested on: mouse cremaster muscle; experiment: Ex vivo mouse cremaster muscle vasoconstriction model; details: for EC50: Mus musculus, read-out: EC50 (vasoconstriction concentration-response)
[4] = target: T2, human α2B-AR (Homo sapiens, UniProt P18089); experiment: Radioligand binding ([3H]rauwolscine) in CHO cells expressing human α2B-AR
T2 construct: expressed in transfected cells
T2 sequence (P18089 1-450): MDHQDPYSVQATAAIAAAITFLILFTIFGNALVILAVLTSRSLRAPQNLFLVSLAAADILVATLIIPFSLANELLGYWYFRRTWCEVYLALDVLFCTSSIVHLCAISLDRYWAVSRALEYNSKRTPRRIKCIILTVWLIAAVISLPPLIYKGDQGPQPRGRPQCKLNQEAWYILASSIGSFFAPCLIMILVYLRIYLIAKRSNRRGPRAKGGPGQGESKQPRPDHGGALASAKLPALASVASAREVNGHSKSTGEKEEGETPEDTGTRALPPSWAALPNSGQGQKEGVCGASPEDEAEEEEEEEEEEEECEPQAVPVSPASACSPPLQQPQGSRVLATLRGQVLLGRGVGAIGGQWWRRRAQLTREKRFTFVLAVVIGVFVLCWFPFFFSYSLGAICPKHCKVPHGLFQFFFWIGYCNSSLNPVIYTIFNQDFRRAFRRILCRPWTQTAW
Protocol: as §1, §2, §3, §4

[5] = target: T3, human α2A-AR (Homo sapiens, UniProt P08913); experiment: Radioligand binding ([3H]rauwolscine) in CHO cells expressing human α2A-AR; parameters: expressed in transfected cells
T3 sequence (P08913 1-465): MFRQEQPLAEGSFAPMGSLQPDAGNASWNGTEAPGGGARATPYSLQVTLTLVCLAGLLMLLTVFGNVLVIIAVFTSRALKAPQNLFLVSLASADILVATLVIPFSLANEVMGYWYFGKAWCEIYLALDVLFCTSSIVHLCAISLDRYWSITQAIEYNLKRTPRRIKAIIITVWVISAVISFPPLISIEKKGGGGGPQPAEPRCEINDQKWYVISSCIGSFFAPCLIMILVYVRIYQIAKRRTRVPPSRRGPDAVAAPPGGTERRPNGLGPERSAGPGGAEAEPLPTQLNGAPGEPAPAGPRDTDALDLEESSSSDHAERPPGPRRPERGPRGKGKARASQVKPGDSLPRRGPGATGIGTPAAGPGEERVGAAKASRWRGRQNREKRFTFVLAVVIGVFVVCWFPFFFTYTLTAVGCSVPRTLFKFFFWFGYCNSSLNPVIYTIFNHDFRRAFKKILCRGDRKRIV
Protocol: as §1, §2, §3, §4

[6] = target: T1, human α2C-AR; parameters: expressed in transfected cells; details: literature; cited from earlier work
[7] = target: T1, human α2C-AR; experiment: cell-based
Protocol: (§5) The reporter gene assays were conducted in CHO cells expressing the human α2A- and α2C-AR subtype. The cells were grown to confluence, upon which they were isolated and electroporated in the presence of the plasmid. […] Cells were transiently transfected with the 6 CRE-LUC plasmid (5 μg/100 μl of cell suspension) using electroporation at 150 V, 70 ms, single pulse. Transfected cells were plated into a 96-well microplate at a density of approximately 50,000 cells per well and allowed to grow for 20 hours.
(§6) The assays with both α2A- and α2C-ARs were conducted using the non-subtype selective α2-AR agonist, medetomidine, to block the cAMP changes induced by the adenyl cyclase activator, forskolin. […] Basal values (solvent control) were subtracted from the forskolin values and the resulting forskolin response was used as 100%. Similarly, basal values were subtracted from all other values obtained with ligands, and the data expressed as a percentage luciferase response relative to that of forskolin alone.
(§7) The agonist ligand, medetomidine, was added directly to the medium 20 minutes prior to the addition of forskolin and then allowed to incubate for 4 hours. […] These compounds were added 20 minutes prior to the addition of medetomidine.

[8] = target: T3, human α2A-AR; experiment: cell-based
Protocol: as §5, §6, §7

[9] = CHO cells, [3H]rauwolscine competition
[10] = CHO, read-out: inhibition of forskolin-induced cAMP response (luciferase)

## COC(=O)[C@@H]1[C@H]2C[C@H]3c4[nH]c5ccccc5c4CCN3C[C@@H]2CC[C@@H]1O [Compound 1, Yohimbine]
[1]
  increase in vessel diameter: 22.14±1.08%
[2]
  binding affinity for the α2C-AR greater than on the α1-AR subtypes: at least 224 fold
[3]; 30, 100, and 300 nM
  reversal of medetomidine induced vasoconstriction: reversed

## O=C(O)[C@@H]1[C@H]2C[C@H]3c4[nH]c5ccccc5c4CCN3C[C@@H]2CC[C@@H]1O [Compound 2, Yohimbinic acid]
[2]
  decrease in binding potency at the α2C-AR as compared to yohimbine: 20 fold
  selectivity in binding to the α2C- versus the α2A-AR: around 32 fold
  selectivity in binding to the α2C- versus the α2B-AR: equipotent
[2]; CHO cells
  Ki: 0.0194 µM
[4]
  binding at the α2B-AR versus the α2A-AR: 46 fold
  decrease in binding potency at the α2B-AR as compared to yohimbine: 2 fold
[4]; CHO cells
  Ki: 0.0134 µM
[5]
  decrease in binding potency at the α2A-AR as compared to yohimbine: 345 fold
[5]; CHO cells
  Ki: 0.616 µM

## O=C(NCCCNC(=O)C1C(O)CCC2CN3CCc4c([nH]c5ccccc45)C3CC21)C1C(O)CCC2CN3CCc4c([nH]c5ccccc45)C3CC21 (stereo not drawn) [Compound 3]
[6]
  selectivity in binding to the α2C- versus α2A-AR (Lalchandani et al. 2002): 32 fold
  selectivity in binding to the α2C- versus α2B-AR (Lalchandani et al. 2002): 355 fold
[2]; CHO cells
  Ki: 0.00891 µM
[2]; [9]
  α2C pKi ± SEM: 8.05 ± 0.04^b
[2]
  selectivity in binding to the α2C- versus the α2A-AR: 18 fold
  selectivity in binding to the α2C- versus the α2B-AR: 68 fold
[4]; CHO cells
  Ki: 0.602 µM
[4]; [9]
  α2B pKi ± SEM: 6.22 ± 0.03
[5]; CHO cells
  Ki: 0.158 µM
[5]; [9]
  α2A pKi ± SEM: 6.80 ± 0.02^a

## Cc1cccc(C(C)c2cnc[nH]2)c1C (stereo not drawn) [medetomidine]
[7]; [10]
  inhibition at 1 µM: 70%
[7]; α2C-AR, 1 μM
  increase in cAMP levels, alone (in the absence of forskolin): did not show an increase in cAMP levels
[8]; [10]
  inhibition at 0.01 µM: 56%
[8]; α2A-AR, 10 μM
  increase in cAMP levels, alone (in the absence of forskolin): 17%
[3]; 25° C. vs 37° C.
  shift of the curve (to the left) at the lower temperature: 10 fold
[3]; 25° C.
  EC50: 0.00215 µM
[3]; 37° C.
  EC50: 0.0204 µM

## [^3H]rauwolscine [[^3H]rauwolsine]
[2]; saturation binding, CHO cells
  Bmax α2C: 1.20±0.13 pmoles/mg protein
[5]; saturation binding, CHO cells
  Bmax α2A: 8.20±0.71 pmoles/mg protein

## yohimbine benzyl carbamate propyl amine [Compound 7]
[2]
  binding affinity for the α2C-AR greater than on the α1-AR subtypes: ≥ 562 fold
[8]; α2A-AR, test compound 0.1 μM, medetomidine 0.01 μM, forskolin 5 μM
  mean percent inhibition (of the medetomidine response): 54%
